US20080026996A1, “Selective Vpac2 Receptor Reptide Agonists” (ELI LILLY AND COMPANY, priority 2004, published 2008)
Where no end group is shown, it is not given here.

Biological target: T1, human PAC1 (Homo sapiens, UniProt P41586)
T1 sequence (P41586 21-468): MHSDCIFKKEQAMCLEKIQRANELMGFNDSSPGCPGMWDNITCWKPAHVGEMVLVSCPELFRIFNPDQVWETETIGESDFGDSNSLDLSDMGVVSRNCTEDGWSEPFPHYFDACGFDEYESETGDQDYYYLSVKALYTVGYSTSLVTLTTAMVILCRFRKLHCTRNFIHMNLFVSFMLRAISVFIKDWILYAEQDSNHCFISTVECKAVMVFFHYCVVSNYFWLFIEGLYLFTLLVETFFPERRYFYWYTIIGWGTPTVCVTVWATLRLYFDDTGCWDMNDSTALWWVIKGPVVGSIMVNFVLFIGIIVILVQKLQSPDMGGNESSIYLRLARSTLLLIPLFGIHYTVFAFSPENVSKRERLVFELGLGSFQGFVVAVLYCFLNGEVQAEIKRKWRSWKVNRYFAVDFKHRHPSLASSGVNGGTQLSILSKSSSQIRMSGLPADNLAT
Experiment: DiscoveRx cAMP in vitro potency, CHO-PO cells transiently transfected with human PAC1 receptor
Assay type: cell-based
Design: expressed in transfected cells; host or cells: CHO-PO, transient (Lipofectamine)
Conditions: not given
Experimental: (§1) Also, the cells are washed twice. The cells are incubated in assay buffer plus IBMX for 15 minutes at room temperature. […] The stimuli are present for 30 minutes. Then, the assay buffer is gently removed. […] At day 3, the assay described above for the VPAC2 receptor cell line is performed.

Substance | EC50
HSDVVFTDNYTRLRKQVAAKKYLQSIKNKRYGGPSSGAPPPS [Agonist P53] | > 1000 nM

Same assay, conditions: cAMP generation; mean of two independent runs; read-out: Human PAC1 Receptor: DiscoveRx EC50

Substance | EC50
H-HSDAVTTDNYTRLRKQVAAKKYLQSIKNKRYGGPSSGAPPPS [Agonist P65] | 0.7 nM
H-HSDLVFTDNYTRLRKQVAAKKYLQSIKNKRYGGPSSGAPPPS [Agonist P55] | > 1000 nM

Biological target: T2, human VPAC1 (Homo sapiens, UniProt P32241)
T2 sequence (P32241 31-457): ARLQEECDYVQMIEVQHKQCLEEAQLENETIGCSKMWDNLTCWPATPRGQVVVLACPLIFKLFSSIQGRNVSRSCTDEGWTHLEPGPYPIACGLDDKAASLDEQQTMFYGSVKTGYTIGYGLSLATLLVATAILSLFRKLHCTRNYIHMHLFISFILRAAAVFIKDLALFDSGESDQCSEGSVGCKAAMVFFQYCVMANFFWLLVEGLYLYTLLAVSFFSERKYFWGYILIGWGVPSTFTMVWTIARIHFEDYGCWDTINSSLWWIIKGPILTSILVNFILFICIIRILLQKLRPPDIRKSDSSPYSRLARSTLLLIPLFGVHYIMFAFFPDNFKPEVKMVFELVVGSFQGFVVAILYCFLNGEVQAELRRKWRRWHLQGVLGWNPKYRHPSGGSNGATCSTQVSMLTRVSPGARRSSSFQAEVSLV
Experiment: DiscoveRx cAMP in vitro potency, CHO-PO cells transiently transfected with human VPAC1 receptor
Assay type: cell-based
Design: expressed in transfected cells; host or cells: CHO-PO, transient (Lipofectamine)
Conditions: not given
Experimental: as §1

Substance | EC50
HSDVVFTDNYTRLRKQVAAKKYLQSIKNKRYGGPSSGAPPPS [Agonist P53] | 118 nM

Same assay, conditions: cAMP generation; mean of two independent runs; read-out: Human VPAC1 Receptor: DiscoveRx EC50

Substance | EC50
H-HSDAVFTDNYTRFRKQVAAKKYLQSIKNKRYGGPSSGAPPPS [Agonist P26] | 0.9 nM
H-HSDAVTTDNYTRLRKQVAAKKYLQSIKNKRYGGPSSGAPPPS [Agonist P65] | > 1000 nM
H-HSDLVFTDNYTRLRKQVAAKKYLQSIKNKRYGGPSSGAPPPS [Agonist P55] | 134 nM
HSDAVFTDNYTRLRKQVAAKKYLQSIKNKIYGGPSSGAPPPS [Agonist P76] | 0.8 nM
HSDAVITDNYTRLRKQVAAKKYLQSIKNKRYGGPSSGAPPPS [Agonist P63] | > 1000 nM
HSDAVLTDNYTRLRKQVAAKKYLQSIKNKRYGGPSSGAPPPS [Agonist P64] | 221 nM
HSDAVVTDNYTRLRKQVAAKKYLQSIKNKRYGGPSSGAPPPS [Agonist P66] | < 1000 nM

Biological target: T3, human VPAC2 (Homo sapiens, UniProt P41587)
T3 construct: expressed in transfected cells
T3 sequence (P41587 24-438): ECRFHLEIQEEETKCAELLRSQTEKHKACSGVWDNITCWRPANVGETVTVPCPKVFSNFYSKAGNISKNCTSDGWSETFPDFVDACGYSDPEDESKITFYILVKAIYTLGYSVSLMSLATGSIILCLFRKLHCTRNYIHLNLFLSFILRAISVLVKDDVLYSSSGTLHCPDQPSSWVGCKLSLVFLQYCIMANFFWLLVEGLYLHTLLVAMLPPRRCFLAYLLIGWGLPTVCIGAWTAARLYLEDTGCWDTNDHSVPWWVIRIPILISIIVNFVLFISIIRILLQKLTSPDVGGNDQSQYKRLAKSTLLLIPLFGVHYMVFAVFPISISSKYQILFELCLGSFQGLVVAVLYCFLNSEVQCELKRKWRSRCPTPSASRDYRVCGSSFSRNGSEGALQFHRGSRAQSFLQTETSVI
Experiment: DiscoveRx cAMP in vitro potency, CHO-S cell line stably expressing human VPAC2 receptor
Assay type: cell-based
Conditions: cAMP generation; mean of two independent runs
Experimental: as §1

Substance | EC50
H-HSDAVTTDNYTRLRKQVAAKKYLQSIKNKRYGGPSSGAPPPS [Agonist P65] | > 1000 nM
HSDAVITDNYTRLRKQVAAKKYLQSIKNKRYGGPSSGAPPPS [Agonist P63] | > 1000 nM
HSDAVLTDNYTRLRKQVAAKKYLQSIKNKRYGGPSSGAPPPS [Agonist P64] | > 1000 nM
HSDAVVTDNYTRLRKQVAAKKYLQSIKNKRYGGPSSGAPPPS [Agonist P66] | > 1000 nM
